Results: US10183015B2, “Heterocyclic compounds and methods of use” (Medivation Technologies LLC, priority 2015, dated 2019)
Several values for one entry are separate records, joined by “and”; a condition that tells them apart may be missing. Identical values can stand only once.

Columns and labels:
Type in all cases: in vivo
SCD1 = experiment: Short-term Paigen-diet NASH mouse model: hepatic SCD1 gene expression (RT-qPCR); conditions: SCD1 relative expression to vehicle group, 21 days
Protocol: To investigate whether Compound #37 prevents the development of pathology associated with NASH and steatosis in an acute exploratory disease model, a study was conducted using a diet-induced acute liver steatosis model in mice. As described below, in this study, C57BL/6J mice were initiated on the Paigen diet and simultaneously treated with Compound #37 (5, 20, and 40 mg/kg/day) or vehicle control (20% HPβCD 10 mL/kg/day) by oral gavage for 21 days.
(§1) After acclimation, 8-week old male C57Bl/6J mice (Charles River) weighing about 25 g were randomized in 4 groups according their body weight and treated once daily around noon by oral gavage with vehicle, or Compound #37 at various for 21 days as follows: Group 1: vehicle-20% (2-hydroxypropyl)-β-cyclodextrin (HP-β-CD) (n=10); Group 2: Compound #37, 5 mg/kg (n=10) Group 3: Compound #37, 20 mg/kg (n=10) Group 4: Compound #37, 40 mg/kg (n=10). During the treatment period, body weight and food intake (measured over 24h) were measured 3 times per week and once a week, respectively. During the acclimation, all mice were fed a standard diet (Special Diets Services RM1 (E), product no. 801492) and tap water ad libitum. After the acclimation period, mice were fed until the end of the experiment with a 60% high fat Paigen diet (60 kcal % fat, 1.25% cholesterol, and 0.5% cholate; D11061901, Research Diet) and tap water ad libitum.
(§2) Gene expression analysis. Hepatic expression levels of genes involved in lipid metabolism (FAS, SREBP1, ACC1, SCD1), cholesterol metabolism (HMG-CoAR, LDLR), SREBP proteolysis (SCAP, INSIG1), ER stress (PERK), oxidative stress (NRF2), inflammation (MCP-1), and fibrosis (collagen 1α1) were quantified by RTqPCR. Expression level was normalized to 18S gene expression and relative expression to vehicle group was calculated with the […] method.

[1] = system: diet-induced NASH obese insulin resistant mice; experiment: DIN mouse model: plasma lipid levels; conditions: 20 mg/kg, end of treatment
Protocol: (§3) Male C57Bl/6J mice (8 weeks old) were housed in enriched ventilated cages (31×12.5×12.7 cm) throughout the experimental phase. Animals' cages litters were changed at least once a week. Animal were housed 5 per cage on inverted 12-hour light cycle (at 09:00 am lights off), 22±2° C. and 55±10% relative humidity. The acclimation period was 20 days. During the acclimation period, all mice were fed a standard diet (RM1 (E) 801492, SDS) and tap water ad libitum. After the acclimation period, mice were fed with the DIN diet (60% fat, cholesterol enriched) and fructose-enriched tap water ad libitum until the end of the experiment.
(§4) At 6 weeks of diet, mice were 4-hour fasted (09:00 am to 1:00 pm) and blood (150 μl/EDTA) was collected at 01:00 pm by retro-orbital bleeding under isoflurane anesthesia. Mice were then allocated in 2 homogenous groups (n=12/group) according to their plasma levels of ALT (average levels: 685U/L), AST (average levels: 627U/L) and HOMA-IR index (average value: 4.7), into 2 homogenous groups (see values at day 0 in Tables 15A and 15B ALT/AST and Tables 16A and 16B for HOMA-IR). Mice were then treated once daily by oral gavage with vehicle (Group 1) or Compound #37 at 20 mg/kg (Group 2) for 70 days.
To investigate whether Compound #37 improves pre-existing steatosis/NASH pathology, a study was conducted using a 16-week diet-induced NASH mouse model. In this model, mice develop steatosis that progresses with inflammation and fibrosis that mimic many of the observed pathologies in human nonalcoholic fatty liver disease (NAFLD) and NASH (Hebbard & George, 2010). For 6 weeks, mice were fed a high-fat, high-cholesterol diet and provided drinking water containing fructose to induce liver pathology (Charlton et al, 2011). After 6 weeks, the mice were divided into 2 groups with similar mean aspartate aminotransferase (AST) and alanine aminotransferase (ALT) values (n=12 mice), although it should be noted that AST and ALT concentrations within both groups were higher and with greater variability than anticipated (e.g., mean ALT 677 U/L [SD, 401 U/L] in the vehicle control group and 693 U/L [SD, 365 U/L] in the Compound #37 group). After the animals were divided into 2 groups, the diet was continued for 10 additional weeks during which time 1 group received vehicle and the other was treated with 20 mg/kg/day Compound #37.

Coll1a1 = experiment: DIN mouse model: hepatic Coll1a1 (collagen 1α1) gene expression; design: mean liver collagen α1(I) mRNA: unit not given here; conditions: for Coll1a1 Dct / Coll1a1 2^DDct / Coll1a1 DDct / Coll1a1 (Ct): liver, 20 mg/kg group
Protocol: as §2, §3, §4
Hepatic expression levels of genes involved in lipid (FAS, SREBP1, ACC1, SCD1), cholesterol metabolism (HMG-CoAR, LDLR), in SREBP proteolysis (SCAP, INSIG1), in ER stress (PERK), oxidative stress (NRF2), and inflammation (MCP-1) were not changed. However, expression of collagen 1α1, involved in liver fibrosis, was reduced by 66% in mice treated with Compound #37 (p<0.05 vs. vehicle).

IL-6 = experiment: Short-term Paigen-diet NASH mouse model: liver IL-6 levels
Protocol: To investigate whether Compound #37 prevents the development of pathology associated with NASH and steatosis in an acute exploratory disease model, a study was conducted using a diet-induced acute liver steatosis model in mice. […]
as §1
The 60% high fat Paigen diet induced accumulation of liver lipids, inflammation, oxidative stress, and then fibrosis.

[2] = individual animals, vs vehicle mean, 20 mg/kg

## CC(C)Cc1cc(-c2nc(-c3ccc(NS(=O)(=O)C(F)(F)F)cc3Cl)cs2)ccn1 [Compound 37, N-(3-chloro-4-(2-(2-isobutylpyridin-4-yl)thiazol-4-yl)phenyl)-1,1,1-trifluoromethanesulfonamide]
SCD1; 5 mg/kg, group mean
  2DDct: 1.05
SCD1; 5 mg/kg, individual animals, 5 mg/kg
  2DDct: 2.96 and 0.99 and 0.66 and 2.02 and 0.77 and 0.22 and 0.93 and 0.76 and 0.6 and 0.59
SCD1; 20 mg/kg, group mean
  2DDct: 1.18
SCD1; 20 mg/kg, individual animals, 20 mg/kg
  2DDct: 0.98 and 0.47 (2×) and 0.88 and 2.28 and 2
[1]; p<0.05 vs. vehicle
  HDL-cholesterol increase: 31%
[1]; group mean, n 11
  plasma HDL cholesterol: 1.42 g/L
  plasma cholesterol: 1.82 g/L
  plasma free fatty acids: 0.59 mM
  plasma triglycerides: 0.40 g/L
[1]; individual animals
  plasma HDL cholesterol: 1.65 g/L and 1.68 g/L and 1.10 g/L and 1.47 g/L (2×) and 1.90 g/L and 1.12 g/L and 1.43 g/L and 0.62 g/L and 1.62 g/L and 1.56 g/L
  plasma cholesterol: 2.49 g/L and 2.36 g/L and 1.95 g/L and 1.67 g/L and 2.12 g/L and 1.38 g/L and 1.62 g/L and 1.15 g/L and 1.57 g/L and 1.86 g/L and 1.90 g/L
  plasma free fatty acids: 0.73 mM and 0.63 mM and 0.59 mM (3×) and 0.29 mM and 0.65 mM and 0.56 mM and 0.71 mM and 0.44 mM and 0.67 mM
  plasma triglycerides: 0.37 g/L (2×) and 0.3 g/L and 0.42 g/L and 0.35 g/L and 0.40 g/L and 0.34 g/L and 0.45 g/L and 0.50 g/L and 0.47 g/L and 0.39 g/L
Coll1a1; 20 mg/kg, 70 days, p<0.05 vs. vehicle
  expression of collagen 1α1 reduction: 66%
Coll1a1; 20 mg/kg/day, 10 weeks, vehicle 1.45%, p<0.05
  mean liver collagen α1(I) mRNA: 0.49
Coll1a1; individual animals, normalised to 18S, 20 mg/kg
  Coll1a1 Dct: 15 and 14.23 and 17.82 and 16.38 and 15.37 and 15.65 and 15.13 and 16.1 and 16.14 and 17.48 and 12.82
Coll1a1; [2]
  Coll1a1 2^DDct: 0.48 and 0.82 and 0.07 and 0.19 and 0.37 and 0.31 and 0.44 and 0.23 and 0.22 and 0.09 and 2.19
  Coll1a1 DDct: 1.05 and 0.28 and 3.87 and 2.43 and 1.42 and 1.7 and 1.18 and 2.15 and 2.19 and 3.53 and −1.13
Coll1a1; individual animals, 20 mg/kg
  Coll1a1 (Ct): 27.55 and 26.78 and 30.66 and 28.81 and 27.72 and 28.24 and 26.86 and 28.61 and 27.64 and 29.03 and 25.17
Coll1a1; mean, n 11
  Coll1a1 2^DDct: 0.49
  Coll1a1 (Ct): 27.9
  Coll1a1 DDct: 1.70
  Coll1a1 Dct: 15.6
IL-6; 5 mg/kg, 21 days, group mean
  IL-6 (pg/mg tissue): 1012 pg/mg tissue
IL-6; 5 mg/kg, 21 days, individual animals
  IL-6 (pg/mg tissue): 1444 pg/mg tissue and 845 pg/mg tissue and 1107 pg/mg tissue and 650 pg/mg tissue and 1305 pg/mg tissue and 957 pg/mg tissue and 770 pg/mg tissue and 1296 pg/mg tissue and 883 pg/mg tissue and 863 pg/mg tissue
IL-6; 20 mg/kg, 21 days, group mean
  IL-6 (pg/mg tissue): 817 pg/mg tissue
IL-6; 20 mg/kg, 21 days, individual animals
  IL-6 (pg/mg tissue): 904 pg/mg tissue and 737 pg/mg tissue and 760 pg/mg tissue and 705 pg/mg tissue and 970 pg/mg tissue and 826 pg/mg tissue
IL-6; 40 mg/kg, 9 days, group mean
  IL-6 (pg/mg tissue): 669 pg/mg tissue
IL-6; 40 mg/kg, 9 days, individual animals
  IL-6 (pg/mg tissue): 1005 pg/mg tissue and 569 pg/mg tissue and 535 pg/mg tissue and 566 pg/mg tissue
